The source made the active and inactive calls. No cut-off for these calls is given here.
Key:
Oryctolagus cuniculus = assay: Antiglaucoma activity in rabbit assessed as reduction in intraocular pressure administered topically measured upto 6 hrs; format: functional, organism-based; conditions: time hrs <=6
Carbonic anhydrase 9 = Carbonic anhydrase 9 (Homo sapiens, UniProt Q16790)
Description: Inhibition of human CA9 by stopped-flow assay

HT-29 [1] = assay: Down regulation of CA9 expression in human HT-29 cells at […] by western blot analysis; format: functional, cell-based
HT-29 [2] = assay: Down regulation of CA12 expression in human HT-29 cells at […] by western blot analysis; format: functional, cell-based
MCF7 = assay: Cytotoxicity against human MCF7 cells; format: functional, cell-based
Carbonic anhydrase 4 = Carbonic anhydrase 4 (Homo sapiens, UniProt P22748); assay: Inhibition of human CA4 by stopped-flow assay
Carbonic anhydrase 2 = Carbonic anhydrase 2 (Homo sapiens, UniProt P00918)
Description: Inhibition of human CA2 by stopped-flow assay

Carbonic anhydrase 1 = Carbonic anhydrase 1 (Homo sapiens, UniProt P00915)
Description: Inhibition of human CA1 by stopped-flow assay

MDA-MB-231 [3] = assay: Induction of apoptosis in human MDA-MB-231 cells assessed as late apoptotic cells at IC50 by flow cytometry analysis (reference value: 0.26 %); format: functional
MDA-MB-231 [4] = assay: Induction of cell cycle arrest in human MDA-MB-231 cells assessed as increase in sub-G1 accumulation at IC50 by flow cytometry analysis; format: functional, cell-based
MDA-MB-231 [5] = assay: Induction of apoptosis in human MDA-MB-231 cells assessed as necrotic cells at IC50 by flow cytometry analysis (reference value: 0.51 %); format: functional
MDA-MB-231 [6] = assay: Induction of apoptosis in human MDA-MB-231 cells assessed as early apoptotic cells at IC50 by flow cytometry analysis (reference value: 0.77 %); format: functional
MDA-MB-231 [7] = assay: Induction of cell cycle arrest in human MDA-MB-231 cells assessed as […] in G2/M accumulation at IC50 by flow cytometry analysis; format: functional, cell-based
[8] = biological target: Mitogen-activated protein kinase 14 (Homo sapiens, UniProt Q16539); assay: Inhibition of p38alphaMAPK (unknown origin)
Sequence of Mitogen-activated protein kinase 14 (Q16539 whole entry): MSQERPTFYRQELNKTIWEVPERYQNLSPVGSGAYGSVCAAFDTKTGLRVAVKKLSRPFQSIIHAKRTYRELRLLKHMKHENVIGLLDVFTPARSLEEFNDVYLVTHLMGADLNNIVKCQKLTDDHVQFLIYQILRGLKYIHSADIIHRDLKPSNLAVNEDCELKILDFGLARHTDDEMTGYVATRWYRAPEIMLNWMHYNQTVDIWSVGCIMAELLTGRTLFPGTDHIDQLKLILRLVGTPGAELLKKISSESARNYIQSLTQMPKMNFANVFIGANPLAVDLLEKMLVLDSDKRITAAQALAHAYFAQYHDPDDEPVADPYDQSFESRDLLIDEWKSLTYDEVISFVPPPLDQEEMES

Sequence of Carbonic anhydrase 4 (P22748 whole entry): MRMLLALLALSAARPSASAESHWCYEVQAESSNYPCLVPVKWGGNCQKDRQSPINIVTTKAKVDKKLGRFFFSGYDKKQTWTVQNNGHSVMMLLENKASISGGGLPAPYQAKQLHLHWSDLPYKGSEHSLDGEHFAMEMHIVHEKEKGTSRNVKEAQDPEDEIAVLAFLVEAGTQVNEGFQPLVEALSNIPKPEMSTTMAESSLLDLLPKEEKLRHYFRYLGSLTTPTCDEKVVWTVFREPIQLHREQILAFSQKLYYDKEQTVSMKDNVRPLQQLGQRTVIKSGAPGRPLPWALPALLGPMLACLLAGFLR
Sequence of Carbonic anhydrase 1 (P00915 whole entry): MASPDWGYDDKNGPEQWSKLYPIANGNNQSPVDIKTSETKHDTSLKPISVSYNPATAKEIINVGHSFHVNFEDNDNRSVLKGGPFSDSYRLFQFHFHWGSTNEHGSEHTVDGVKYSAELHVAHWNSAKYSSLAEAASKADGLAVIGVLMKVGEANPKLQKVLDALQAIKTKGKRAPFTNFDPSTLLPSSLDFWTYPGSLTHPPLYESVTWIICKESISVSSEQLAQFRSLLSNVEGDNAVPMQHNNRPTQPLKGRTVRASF

SMILES: NS(=O)(=O)c1ccc(C(=O)N[C@@H]2OC[C@@H](O)[C@H](O)[C@H]2O)cc1
- Activity (Oryctolagus cuniculus): Active

SMILES: O=Cc1ccccc1OCc1cn(CCCOc2ccc3ccc(=O)oc3c2)nn1
- Ki (Carbonic anhydrase 9): 0.0609 µM
- Activity (HT-29 [1]): Active
- Activity (HT-29 [2]): Active

SMILES: NS(=O)(=O)c1ccc(C(=O)N[C@@H]2O[C@H](CO)[C@@H](O)[C@H](O)[C@@H]2O)cc1
- Activity (Oryctolagus cuniculus): Active

SMILES: C[C@@H]1OC[C@@](O)(NC(=O)c2ccc(S(N)(=O)=O)cc2)[C@H](O)[C@H]1O
- IC50 (Carbonic anhydrase 9): 0.76 µM

SMILES: CCN1C(=O)/C(=N\NC(=O)c2ccc(S(N)(=O)=O)cc2)c2ccccc21
- Ki (Carbonic anhydrase 9): 0.0089 µM

SMILES: NS(=O)(=O)c1ccc(Nc2nc(NN3C(=O)/C(=C\c4ccccc4)N=C3c3ccccc3)cs2)cc1
- IC50 (MCF7): 45.9 µM

SMILES: COC(=O)[C@H]1O[C@@H](NC(=O)c2ccc(S(N)(=O)=O)cc2)[C@H](O)[C@@H](O)[C@@H]1O
- Activity (Oryctolagus cuniculus): Active

SMILES: NS(=O)(=O)c1ccc(-n2nnc(C(=O)N3N=C(c4ccccn4)CC3(O)C(F)(F)F)c2-c2ccc(F)cc2)cc1 (stereo not drawn)
- Ki (Carbonic anhydrase 9): 0.0007 µM

SMILES: NS(=O)(=O)c1ccc(C/N=C/c2c(OCc3cn(CCCOc4ccc5ccc(=O)oc5c4)nn3)ccc3ccccc23)cc1
- Activity (HT-29 [1]): Active
- Activity (HT-29 [2]): Active

SMILES: CN(C)c1ccc(/C=C2/N=C(c3ccccc3)N(Nc3csc(Nc4ccc(S(N)(=O)=O)cc4)n3)C2=O)cc1
- IC50 (MCF7): 38.9 µM

SMILES: COc1ccc(OC)c(/C=C2/N=C(c3ccccc3)N(c3ccc(S(N)(=O)=O)cc3)C2=O)c1
- Ki (Carbonic anhydrase 9): 0.023 µM

SMILES: CC(=O)NS(=O)(=O)c1ccc(N2C(=O)/C(=C\c3cn(C(C)=O)c4ccccc34)N=C2c2ccccc2)cc1
- Ki (Carbonic anhydrase 9): 1.47 µM
- Ki (Carbonic anhydrase 4): > 10 µM

SMILES: NS(=O)(=O)c1ccc(N2C(=O)/C(=C\c3ccccc3)N=C2c2ccccc2)cc1
- Ki (Carbonic anhydrase 9): 0.0587 µM

SMILES: CC(=O)n1cc(/C=C2/N=C(c3ccccc3)N(c3ccc(S(N)(=O)=O)cc3)C2=O)c2ccccc21
- Ki (Carbonic anhydrase 9): 0.318 µM
- Ki (Carbonic anhydrase 4): 0.263 µM

SMILES: CC(=O)n1cc(/C=C2/N=C(c3ncccn3)N(c3ccc(S(N)(=O)=O)cc3)C2=O)c2ccccc21
- Ki (Carbonic anhydrase 9): > 10 µM
- Ki (Carbonic anhydrase 2): > 10 µM
- Ki (Carbonic anhydrase 1): > 10 µM
- Ki (Carbonic anhydrase 4): > 10 µM

SMILES: NS(=O)(=O)c1ccc(NC(=O)Nc2ccc(/N=C3\C(=O)Nc4ccc(Cl)cc43)cc2)cc1
- Activity (MDA-MB-231 [3]): 11.26%
- Activity (MDA-MB-231 [4]): Active
- Ki (Carbonic anhydrase 9): 7430 µM
- Activity (MDA-MB-231 [5]): 2.47%
- Activity (MDA-MB-231 [6]): 7.28%
- Activity (MDA-MB-231 [7]): Active

SMILES: NS(=O)(=O)c1ccc(-n2nnc(C(=O)O)c2-c2ccccn2)cc1
- Ki (Carbonic anhydrase 9): 1.41 µM

SMILES: COc1ccc(C2=N/C(=C/c3ccc(O)cc3)C(=O)N2c2ccc(S(N)(=O)=O)cc2)cc1
- Ki (Carbonic anhydrase 9): 0.0124 µM
- Ki (Carbonic anhydrase 2): 0.00083 µM
- Ki (Carbonic anhydrase 1): 0.095 µM
- IC50 [8]: 0.14 µM
- Ki (Carbonic anhydrase 4): 0.0069 µM

SMILES: COc1cc(/C=C2/N=C(c3ccccc3)N(c3ccc(S(N)(=O)=O)cc3)C2=O)cc(OC)c1OC
- Ki (Carbonic anhydrase 9): 0.0682 µM

SMILES: NS(=O)(=O)c1ccc(Nc2nc(NN3C(=O)/C(=C\c4ccc(Cl)cc4)N=C3c3ccccc3)cs2)cc1
- Ki (Carbonic anhydrase 9): 0.0292 µM
- IC50 (MCF7): > 150 µM
